Patent US20050209157A1, “Short bioactive peptides and methods for their use” (priority 2001, published 2005)
Read-outs that look alike come from different tables or passages of the source. No end group written: not given here.

Key:
[1] = test system: yeast (Saccharomyces cerevisiae); assay: Antimicrobial assay I, yeast assay in RPMI 1640; assay type: cell-based; details: RPMI 1640 media
[2] = test system: human red blood cells (RBC); assay: in vitro; assay type: cell-based; details: hemolytic assay, concentration at 50% hemolysis, 1 hour at 37° C.
[3] = test system: Staphylococcus aureus ATCC 6538; assay: Antimicrobial assay I, MIC by OD measurement; assay type: cell-based; details: 37° C. for 24 hours, absorbance 620 nm
[4] = test system: Pseudomonas aeruginosa ATCC 9027; assay: Antimicrobial assay I, MIC by OD measurement; assay type: cell-based; details: 37° C. for 24 hours, absorbance 620 nm
in vitro [5] = details: human, WI38 normal lung fibroblast cells, LD50 WI38, WI38 normal lung fibroblast line, MTT, 24 hours with peptide
HeLaS3 = assay: Anti-cancer assay, MTT, LD50; assay type: cell-based; details: 24 hours with peptide, cervical carcinoma
Source text: (§1) Numbers are LD50 values (μg/mL).

BMKC = assay: Anti-cancer assay, MTT, LD50; assay type: cell-based; details: BMKC cloned melanoma line, 24 hours with peptide
Source text: as §1

SW480 = assay: Anti-cancer assay, MTT, LD50; assay type: cell-based; details: SW480 colon adenocarcinoma line, 24 hours with peptide
Source text: as §1

H1299 = assay: Anti-cancer assay, MTT, LD50; assay type: cell-based; details: 24 hours with peptide, lung large cell carcinoma
Source text: as §1

MCF7 = assay: Anti-cancer assay, MTT, LD50; assay type: cell-based; details: MCF7 breast adenocarcinoma line, MTT, 24 hours with peptide
Source text: as §1

PC3 = assay: Anti-cancer assay, MTT, LD50; assay type: cell-based; details: 24 hours with peptide, prostate adenocarcinoma
Source text: as §1

WI38 = details: MTT, 24 hours with peptide; normal fibroblast line
[6] = test system: clinical tobramycin resistant strain 960890198-3c; assay: Activity against drug resistant strains; assay type: cell-based; details: for activity against clinical tobramycin resistant strain: strain 960890198-3c; for activity against tr Pseudomonas 960890198-3c: clinical tobramycin resistant strain, Table 47
Protocol: (§2) Peptides were assayed for their activity against tobramycin sensitive and resistant strains.

[7] = test system: tobramycin resistant (tr) Pseudomonas ATCC 13096; assay: Activity against drug resistant strains; assay type: cell-based; details: for activity against tobramycin resistant versus tobramycin sensitive Pseudomonas: ATCC 13096 (tr) compared with ATCC 27853 (ts); for activity against tr Pseudomonas 13096: tobramycin resistant strain, Table 46
Protocol: as §2

[8] = test system: tobramycin sensitive (ts) Pseudomonas ATCC 27853; assay: Activity against drug resistant strains; assay type: cell-based; details: tobramycin sensitive strain
Protocol: as §2

S. pyogenes ATCC19615 = assay: Antimicrobial assays II, NCCLS broth microdilution MIC; assay type: cell-based, Streptococcus pyogenes; details: mean of three, in µg/mL
laminin = assay: Laminin stimulation, ELISA on fibroblast cell lines; assay type: cell-based
Protocol: (§3) Fibroblast cell lines were cultured under standard conditions and assayed for collagen and laminin using an ELISA system manufactured by Panvera (Madison, Wis.). Antibodies for collagen and laminin manufactured by Takara Shuzo Co., Ltd Japan. […] The other three peptides tested neither stimulated nor inhibited production (i.e. no effect was observed).

in vitro [9] = assay type: cell-based, human; details: human, human red blood cells, pH 7, hemolytic assay, concentration at 50% hemolysis, 1 hour at 37° C.; read-out: LD50
collagen = assay: Collagen stimulation, ELISA on fibroblast cell lines; assay type: cell-based
Protocol: as §3

S. pneumoniae C719 = assay: Antimicrobial assays II, NCCLS broth microdilution MIC; assay type: cell-based, Streptococcus pneumoniae; details: mean of three, in µg/mL
S. pneumoniae C718 = assay: as above; assay type: cell-based, Streptococcus pneumoniae; details: mean of three
S. epidermidis C621 = assay type: cell-based, Staphylococcus epidermidis; details: mean of three; 16 to 20 hours at 35° C.
S. aureus (MRSA) = assay type: cell-based, Staphylococcus aureus; details: mean of three; 16 to 20 hours at 35° C.
S. pyogenes M76 = assay: Antimicrobial assays II, NCCLS broth microdilution MIC; assay type: cell-based, Streptococcus pyogenes; details: mean of three; 16 to 20 hours at 35° C.
P. aeruginosa H774 = assay type: cell-based, Pseudomonas aeruginosa; details: P. aeruginosa H744; nalidixic acid + peptide at ¼ MIC; 0.5 or less = synergy
Summary of the method: (§4)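 Efflux-mutant strains were tested with two-fold serial dilutions of chloramphenicol or nalidixic acid, alone and with peptide held at ¼ of its own MIC.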

P. aeruginosa H374 = assay type: cell-based, Pseudomonas aeruginosa; details: for FIC Index: 0.5 or less = synergy
Summary of the method: as §4

P. aeruginosa = assay type: cell-based, Pseudomonas aeruginosa; details: P. aeruginosa H744; MIC of nalidixic acid with peptide at ¼ MIC
Summary of the method: as §4

P. aeruginosa 27853 = assay: Synergy between doxacycline and peptides, MBC; assay type: cell-based, Pseudomonas aeruginosa; details: for MBC, With doxacycline: doxacycline held at 10 ppm; for MBC, Without doxacycline: peptide alone
Source text: Synergy between doxacycline and various peptides was investigated against P. aeruginosa 27853. The following table illustrates the beneficial effects of combining doxacycline and the peptides, where the numbers are the minimum bactericidal concentration (MBC; μg/mL). When combined with the peptides, the doxacycline was held at 10 ppm concentration.

Escherichia coli 25922 = assay: microbe, parasite or virus in culture
Source text: Synergy between peptide Shiva-10 (SEQ ID NO:4) and various antimicrobial agents was investigated against Escherichia coli 25922.
Synergy between tetracycline and various peptides was investigated against Escherichia coli 25922 MBC. […] When combined with the peptides, the concentration of tetracycline was held at 1.5 ppm.

Molecule | yeast (MIC or MFC) [1] | staph6538 (MIC) [3] | paerug9027 (MIC) [4] | CC50 at 24 h (in vitro [5]) | HeLaS3 LD50 (HeLaS3) | LD50 BMKC (BMKC) | LD50 SW480 (SW480) | H1299 LD50 (H1299) | LD50 MCF7 (MCF7) | PC3 LD50 (PC3) | WI38 LD50 (WI38) | activity against clinical tobramycin resistant strain [6] | activity against tobramycin resistant versus tobramycin sensitive Pseudomonas [7] | activity against tr Pseudomonas 13096 [7] | activity against ts Pseudomonas 27853 ([8]; Table 46) | HC50 at 1 h (in vitro [9]) | Collagen stimulation (collagen) | other results
FAKLLAKLAKKIL-NH2 [P125] | 50 mg/L | 10 mg/L | 100 mg/L | 90 mg/L | 220 µg/mL | 220 µg/mL | 125 µg/mL | 76 µg/mL | 90 µg/mL | 145 µg/mL | 90 µg/mL | greater activity against clinical tobramycin resistant strain 960890198-3c | greater activity against tobramycin resistant (tr) Pseudomonas ATCC 13096 than against tobramycin sensitive (ts) Pseudomonas ATCC 27853 | 4 | 31 |  |  | LD50 [2]: > (> indicates greater than 1000)
FAKLLALALKLKL-NH2 [P94] | > (> indicates greater than 200 μg/mL) | 10 mg/L | > (> indicates greater than 200 μg/mL) | 6 mg/L | > (> indicates greater than 1000) | 11 µg/mL |  |  | 65 µg/mL |  | 6 µg/mL |  |  |  |  | 350 µg/mL | 0% | S. pyogenes MIC (S. pyogenes ATCC19615): 8; Laminin stimulation (laminin): 0%; S. pneumoniae MIC (S. pneumoniae C719): 128; S. pneumoniae MIC (S. pneumoniae C718): 64 mg/L; S. epidermidis C621 MIC (S. epidermidis C621): 8 mg/L; S. aureus (MRSA) MIC (S. aureus (MRSA)): 16 mg/L; S. pyogenes M76 MIC (S. pyogenes M76): 8 mg/L
FAKLLKLAAKKLL-NH2 [P56] | 50 mg/L | 200 mg/L | 5 mg/L | 250 mg/L | 300 µg/mL | 205 µg/mL | 215 µg/mL | 370 µg/mL | 500 µg/mL | 435 µg/mL | 250 µg/mL | greater activity against clinical tobramycin resistant strain 960890198-3c | greater activity against tobramycin resistant (tr) Pseudomonas ATCC 13096 than against tobramycin sensitive (ts) Pseudomonas ATCC 27853 | 16 | 125 | 600 µg/mL |  | FIC Index (P. aeruginosa H774): 1.25; MIC Cm-comb. (P. aeruginosa H374; MIC of chloramphenicol with peptide at ¼ MIC): 16 mg/L; MIC Nal-comb. (P. aeruginosa H374; MIC of nalidixic acid with peptide at ¼ MIC): 2500 mg/L; FIC Index (P. aeruginosa H374; chloramphenicol + peptide at ¼ MIC): 1.25; FIC Index (P. aeruginosa H374; nalidixic acid + peptide at ¼ MIC, FIC=0.25+MIC comb/MIC alone): 0.75; MIC Nal-comb. (P. aeruginosa): 624 mg/L; activity against tr Pseudomonas 960890198-3c [6]: >50; activity against ts Pseudomonas 27853 ([8]; Table 47): 125
MPKWKVFKKIEKVGRNIRNGIVKAGPAIAVLGEAKALG-OH [SB-37 (P5; SEQ ID NO: 3)] |  |  |  |  |  |  |  |  |  |  |  |  |  |  |  |  |  | MBC, With doxacycline (P. aeruginosa 27853): 30 mg/L; MBC, Without doxacycline (P. aeruginosa 27853): 200 mg/L
CC(C)C[C@H](NC(=O)[C@H](C)NC(=O)[C@H](CC(C)C)NC(=O)[C@H](CCCCN)NC(=O)[C@H](C)NC(=O)[C@H](CC(C)C)NC(=O)[C@H](CCCCN)NC(=O)[C@H](CCCCN)NC(=O)[C@H](C)NC(=O)[C@H](CC(C)C)NC(=O)[C@H](CCCCN)NC(=O)[C@H](C)NC(=O)[C@H](CC(C)C)NC(=O)[C@H](CCCCN)NC(=O)[C@H](CCCCN)NC(=O)[C@H](C)NC(=O)[C@@H](N)Cc1ccccc1)C(N)=O [FLAK 26AM (P35; SEQ ID NO: 17)] |  |  |  |  |  |  |  |  |  |  |  |  |  |  |  |  |  | MBC, With doxacycline (P. aeruginosa 27853): 32 mg/L; MBC, Without doxacycline (P. aeruginosa 27853): 50 mg/L; MBC, Without tetracycline (Escherichia coli 25922; peptide alone): 50 mg/L; MBC, With tetracycline (Escherichia coli 25922; tetracycline held at […]): 20 mg/L
FAKKLAKKLAKAL-NH2 [P74, FAKKLAKKLAKAL-NH2] | 100 mg/L | 15 mg/L | 5 mg/L | 335 mg/L | 260 µg/mL | 460 µg/mL | 340 µg/mL | 670 µg/mL | 465 µg/mL | 660 µg/mL | 335 µg/mL | greater activity against clinical tobramycin resistant strain 960890198-3c | greater activity against tobramycin resistant (tr) Pseudomonas ATCC 13096 than against tobramycin sensitive (ts) Pseudomonas ATCC 27853 | 16 | 125 |  |  | LD50 [2]: > (> indicates greater than 1000); activity against tr Pseudomonas 960890198-3c [6]: 25; activity against ts Pseudomonas 27853 ([8]; Table 47): 125
TGFβ |  |  |  |  |  |  |  |  |  |  |  |  |  |  |  |  | 60% | 
FALALKALKKL-NH2 [P165] | 25 mg/L | 10 mg/L | 25 mg/L | 470 mg/L | 400 µg/mL | 240 µg/mL | 240 µg/mL | 56 µg/mL | 360 µg/mL | 340 µg/mL | 470 µg/mL |  |  |  |  | 350 µg/mL | 0% | Laminin stimulation (laminin): 0%
C[C@H]1c2cccc(O)c2C(O)=C2C(=O)[C@]3(O)C(O)=C(C(N)=O)C(=O)[C@@H](N(C)C)[C@@H]3[C@@H](O)[C@@H]21 [Doxacycline] |  |  |  |  |  |  |  |  |  |  |  |  |  |  |  |  |  | MBC of doxacycline (P. aeruginosa 27853; doxacycline itself, printed in column With doxacycline): 100 mg/L
